# Assay results from ChEMBL document CHEMBL1201862, “PubChem BioAssay data set” (2004).
#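 How tested: cells in 96-well plates exposed to compound for 48 hours at five concentrations. GI50 marks 50% less growth.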 Active and inactive are the calls of the source. Rule as the data show it: active = GI50 up to about 1.1 µM and inactive = higher.
# Key:
# Test in all cases: NCI anticancer screen, dose series, 48 h
# MDA-MB-435 = system: MDA-MB-435
# SK-MEL-5 = system: SK-MEL-5
# CAKI-1 = system: CAKI-1
# A549 = system: A549
# OVCAR-4 = system: OVCAR-4
# M14 = system: M14
# PC-3 = system: PC-3
# MDA-N = system: MDA-N
# HCT-116 = system: HCT-116
# Hs-578T = system: Hs-578T
# EKVX = system: EKVX
# MDA-MB-231 = system: MDA-MB-231
# HCC 2998 = system: HCC 2998
# T47D = system: T47D
# SF-295 = system: SF-295
# SR = system: SR
# UO-31 = system: UO-31
# NCI-H460 = system: NCI-H460
# BT-549 = system: BT-549
SMILES,GI50 (MDA-MB-435),GI50 (SK-MEL-5),GI50 (CAKI-1),GI50 (A549),GI50 (OVCAR-4),GI50 (M14),GI50 (PC-3),GI50 (MDA-N),GI50 (HCT-116),GI50 (Hs-578T),GI50 (EKVX),GI50 (MDA-MB-231),GI50 (HCC 2998),GI50 (T47D),GI50 (SF-295),GI50 (SR),GI50 (UO-31),GI50 (NCI-H460),GI50 (BT-549)
CC1CC/C(=C\c2ccc(F)cc2)C2=C1C(c1ccc(F)cc1)n1c(s/c(=C\c3ccc(Cl)cc3)c1=O)=N2 (centres undefined),> 100 µM (inactive),> 100 µM (inactive),> 100 µM (inactive),> 100 µM (inactive),> 100 µM (inactive),> 100 µM (inactive),> 100 µM (inactive),> 100 µM (inactive),> 100 µM (inactive),> 100 µM (inactive),> 100 µM (inactive),> 100 µM (inactive),,,,,,,
CN(C)Cc1cc(C(=O)/C=C/c2ccc(F)cc2)cc(CN(C)C)c1O,16.3 µM (inactive),19.1 µM (inactive),18.7 µM (inactive),26.6 µM (inactive),41.8 µM (inactive),12.4 µM (inactive),27.5 µM (inactive),> 10 µM (inactive),13.4 µM (inactive),24.7 µM (inactive),35.6 µM (inactive),31 µM (inactive),> 10 µM (inactive),18 µM (inactive),14 µM (inactive),20.6 µM (inactive),13.4 µM (inactive),10.5 µM (inactive),
c1ccc2[nH]c3[nH]c4[nH]c5ccccc5[nH]c4[nH]c3[nH]c2c1,> 100 µM (inactive),> 100 µM (inactive),> 100 µM (inactive),> 100 µM (inactive),,> 100 µM (inactive),> 100 µM (inactive),> 100 µM (inactive),> 100 µM (inactive),60.7 µM (inactive),> 100 µM (inactive),> 100 µM (inactive),> 100 µM (inactive),,66.2 µM (inactive),> 100 µM (inactive),> 100 µM (inactive),> 100 µM (inactive),> 100 µM (inactive)
CN1N=C(c2ccncc2)OC1c1ccc(Cl)cc1Cl (centres undefined),63.7 µM (inactive),65.6 µM (inactive),,> 100 µM (inactive),43.6 µM (inactive),95.3 µM (inactive),63.1 µM (inactive),> 100 µM (inactive),93.1 µM (inactive),> 100 µM (inactive),41.7 µM (inactive),87.9 µM (inactive),> 100 µM (inactive),60.3 µM (inactive),66.2 µM (inactive),,93.5 µM (inactive),> 100 µM (inactive),
COC1/C=C(C)/C=C/C(C)/C=C/C(=O)OC(/C(C)=C/C=C(\C)CNC(=O)[C@H](CO)NC=O)C(C)/C=C/C=C/C(OC)CC/C=C(C)/C=C/C1 (some centres undefined),0.0224 µM (active),0.0231 µM (active),0.0706 µM (active),0.0307 µM (active),0.491 µM (active),0.0183 µM (active),0.0264 µM (active),,0.0318 µM (active),> 0.214 µM (active),0.139 µM (active),0.012 µM (active),,0.0525 µM (active),0.0229 µM (active),,0.197 µM (active),0.0316 µM (active),0.0581 µM (active)
CCOC(=N)n1c(=O)n(C2=NCCN2)c2ccccc21,> 100 µM (inactive),,> 100 µM (inactive),> 100 µM (inactive),> 100 µM (inactive),> 100 µM (inactive),> 100 µM (inactive),> 100 µM (inactive),> 100 µM (inactive),,> 100 µM (inactive),> 100 µM (inactive),> 100 µM (inactive),> 100 µM (inactive),> 100 µM (inactive),> 100 µM (inactive),> 100 µM (inactive),> 100 µM (inactive),> 100 µM (inactive)
CCN1CCCc2cc3c(C(F)(F)F)cc(=O)oc3cc21,73.1 µM (inactive),28.6 µM (inactive),50.8 µM (inactive),> 100 µM (inactive),> 100 µM (inactive),> 100 µM (inactive),20.7 µM (inactive),> 100 µM (inactive),91.8 µM (inactive),,8.11 µM (inactive),53.2 µM (inactive),> 100 µM (inactive),65.5 µM (inactive),63.4 µM (inactive),,> 100 µM (inactive),82.8 µM (inactive),58.2 µM (inactive)
COc1ccc(CNc2nc3cc(C(F)(F)F)ccc3nc2C(=O)O)cc1,21.3 µM (inactive),12.3 µM (inactive),35.8 µM (inactive),28.8 µM (inactive),32.9 µM (inactive),22.4 µM (inactive),31.2 µM (inactive),27.7 µM (inactive),19.2 µM (inactive),,23.6 µM (inactive),26.9 µM (inactive),31.6 µM (inactive),25.7 µM (inactive),32 µM (inactive),24.5 µM (inactive),17.8 µM (inactive),31.4 µM (inactive),23.3 µM (inactive)
C=C(Br)CN(CC(=C)Br)C(C)=O,> 100 µM (inactive),> 100 µM (inactive),> 100 µM (inactive),> 100 µM (inactive),> 100 µM (inactive),> 100 µM (inactive),81.8 µM (inactive),> 100 µM (inactive),> 100 µM (inactive),> 100 µM (inactive),> 100 µM (inactive),> 100 µM (inactive),> 100 µM (inactive),> 100 µM (inactive),> 100 µM (inactive),> 100 µM (inactive),> 100 µM (inactive),> 100 µM (inactive),
Oc1ccc2ccccc2c1OCc1nnc(CCCCCCCCc2nnc(COc3c(O)ccc4ccccc34)o2)o1,> 100 µM (inactive),> 100 µM (inactive),67 µM (inactive),> 100 µM (inactive),> 100 µM (inactive),> 100 µM (inactive),> 100 µM (inactive),> 100 µM (inactive),20.7 µM (inactive),,> 100 µM (inactive),34.8 µM (inactive),> 100 µM (inactive),,> 100 µM (inactive),,> 100 µM (inactive),> 100 µM (inactive),> 100 µM (inactive)
O=P(c1ccccc1)(c1ccccc1)C(NCc1ccccc1)c1ccc(F)cc1 (centres undefined),8.41 µM (inactive),15.9 µM (inactive),17 µM (inactive),15 µM (inactive),20.3 µM (inactive),14.7 µM (inactive),,17.1 µM (inactive),12.8 µM (inactive),28.4 µM (inactive),12.7 µM (inactive),11.1 µM (inactive),16.1 µM (inactive),26.5 µM (inactive),15.2 µM (inactive),15 µM (inactive),12.8 µM (inactive),12.2 µM (inactive),
CCCC(=O)Oc1c2ccsc2c(OC(=O)CCC)c2ccsc12,0.305 µM (active),0.804 µM (active),5.55 µM (inactive),3.94 µM (inactive),2.94 µM (inactive),1.57 µM (inactive),0.836 µM (active),0.371 µM (active),1.35 µM (inactive),,2.27 µM (inactive),1.49 µM (inactive),4.14 µM (inactive),6.37 µM (inactive),0.457 µM (active),0.444 µM (active),2.53 µM (inactive),1.05 µM (active),1.35 µM (inactive)
O=C(Nc1ccccc1SC(/C=C/NNC1=NN=C(c2ccccc2)C(c2ccccc2)N1)c1ccccc1)c1ccc(Cl)cc1Cl (centres undefined),,42.8 µM (inactive),,38.9 µM (inactive),35.9 µM (inactive),,,,,,37.8 µM (inactive),,47 µM (inactive),,25.6 µM (inactive),,34 µM (inactive),42.7 µM (inactive),
C=C1c2nc3ccccc3n2C=C(c2ccc(Cl)cc2)N1c1ccc(OC)cc1,8.28 µM (inactive),6.53 µM (inactive),4.58 µM (inactive),10.9 µM (inactive),6 µM (inactive),7.8 µM (inactive),15.4 µM (inactive),13.2 µM (inactive),6.97 µM (inactive),,8.51 µM (inactive),12.7 µM (inactive),8.85 µM (inactive),,6.19 µM (inactive),11.2 µM (inactive),6.38 µM (inactive),6.47 µM (inactive),2.67 µM (inactive)
COc1ccc(C2C=C(c3ccccc3)Nc3nnnn32)cc1 (centres undefined),76.6 µM (inactive),34.4 µM (inactive),54 µM (inactive),41.3 µM (inactive),,68.2 µM (inactive),49 µM (inactive),45.1 µM (inactive),13.5 µM (inactive),40.6 µM (inactive),,26.6 µM (inactive),,19 µM (inactive),31 µM (inactive),26.4 µM (inactive),90.8 µM (inactive),45 µM (inactive),
CCC1(O)CN(CCOC)[C@H]2C[C@@H]1C(=O)c1[nH]c3ccccc3c12 (some centres undefined),> 100 µM (inactive),> 100 µM (inactive),> 100 µM (inactive),> 100 µM (inactive),> 100 µM (inactive),> 100 µM (inactive),> 100 µM (inactive),> 100 µM (inactive),> 100 µM (inactive),> 100 µM (inactive),> 100 µM (inactive),> 100 µM (inactive),> 100 µM (inactive),,> 100 µM (inactive),> 100 µM (inactive),> 100 µM (inactive),> 100 µM (inactive),> 100 µM (inactive)
CS/C=C\C(=O)O[C@H]1C[C@@H]2[C@@H](O)c3occ(C)c3C[C@]2(C)[C@@H](C)C1,23.1 µM (inactive),14.9 µM (inactive),39.7 µM (inactive),,22.2 µM (inactive),20.3 µM (inactive),41.2 µM (inactive),20.3 µM (inactive),17.5 µM (inactive),29.6 µM (inactive),37.5 µM (inactive),22.4 µM (inactive),29.2 µM (inactive),24.4 µM (inactive),29.6 µM (inactive),35.1 µM (inactive),,21.6 µM (inactive),
